The NIST ThermoML archive (doi:10.1021/je400055v)

Settings: Liquid, Vibrating tube method

CCCCCCCCCCC [undecane]
mass density [kg/m3]
Settings | 313.15 K | 323.1 K | 333.02 K | 342.09 K | 352.93 K | 362.91 K
1000 kPa | 726.6 | 719 | 711.3 | 703.9 | 696.5 | 688.8
2000 kPa | – | 719.8 | – | 704.8 | 697.4 | –
2001 kPa | 727.3 | – | 712.1 | – | – | 689.9
3000 kPa | – | 720.6 | 713 | – | – | 691
3001 kPa | 728 | – | – | 705.8 | 698.4 | –
4000 kPa | 728.7 | 721.4 | 713.8 | 706.7 | 699.4 | 692
5000 kPa | 729.5 | – | 714.7 | 707.6 | 700.4 | –
5001 kPa | – | 722.2 | – | – | – | 693.1
6000 kPa | – | 723 | 715.5 | 708.5 | 701.4 | –
6001 kPa | 730.2 | – | – | – | – | 694.1
7000 kPa | 731 | 723.8 | 716.4 | 709.4 | – | –
7001 kPa | – | – | – | – | 702.3 | 695.2
8000 kPa | 731.8 | 724.6 | – | 710.4 | 703.3 | 696.2
8001 kPa | – | – | 717.3 | – | – | –
9000 kPa | 732.6 | 725.5 | 718.1 | 711.2 | 704.3 | 697.2
10000 kPa | 733.4 | – | 719 | 712.2 | – | 698.2
10001 kPa | – | 726.3 | – | – | 705.2 | –
11000 kPa | 734.1 | 727.1 | 719.9 | 713.1 | 706.2 | 699.2
12000 kPa | 734.9 | 727.9 | 720.7 | 714 | 707.1 | –
12001 kPa | – | – | – | – | – | 700.2
13000 kPa | 735.7 | 728.7 | 721.5 | 714.8 | 708 | 701.1
14000 kPa | – | 729.5 | 722.4 | 715.7 | 709 | –
14001 kPa | 736.4 | – | – | – | – | 702.1
15000 kPa | 737.2 | – | 723.2 | 716.6 | 709.8 | –
15001 kPa | – | 730.3 | – | – | – | 703
16000 kPa | 737.9 | 731.1 | 724 | 717.4 | 710.7 | –
16001 kPa | – | – | – | – | – | 704
17000 kPa | 738.7 | 731.9 | 724.8 | 718.2 | 711.6 | –
17001 kPa | – | – | – | – | – | 704.9
18000 kPa | 739.4 | 732.6 | 725.6 | 719.1 | 712.5 | 705.8
19000 kPa | 740 | 733.3 | 726.3 | 719.9 | 713.3 | –
19001 kPa | – | – | – | – | – | 706.6
20000 kPa | 740.7 | 734 | 727.1 | 720.6 | 714.1 | 707.5
21000 kPa | – | 734.7 | 727.8 | 721.4 | 715 | 708.4
21001 kPa | 741.3 | – | – | – | – | –
22000 kPa | 742 | 735.4 | 728.5 | 722.2 | 715.7 | 709.2
23000 kPa | 742.6 | 736 | 729.2 | 722.9 | 716.5 | 710
23999 kPa | – | – | – | 723.6 | – | –
24000 kPa | 743.2 | 736.7 | 729.9 | – | 717.3 | 710.9
25000 kPa | 743.7 | 737.3 | 730.5 | 724.3 | 718 | 711.6
